Measurements as given in patent US20110092624A1, “INK COMPOSITION AND METHOD FOR PRODUCING THE SAME” (SEIKO EPSON CORPORATION, priority 2009, published 2011).

Experiment: Solubility of acidic dye and by-product in solvents, rated by filter cake weight
Type: physicochemical
Settings: 10 g solvent, filtered 0.2 μm, dried filter cake weighed
Method: The acidic dye was C. I. Acid Blue 290. The acidic dye was added to 10 g of each organic solvent and the organic solvent was agitated, whereby the acidic dye was dissolved in the organic solvent. A solution thereby obtained was filtered through an Omnipore membrane filter, having a pore size of 0.2 μm, available from Nihon Millipore K.K. A filter cake thereby obtained was dried and then weighed. A by-product represented by the following formula was measured for solubility in the same manner as that used to measure the acidic dye:
The solubility of the acidic dye and by-product in each organic solvent was evaluated on the basis of the weight of the filter cakes. Evaluation standards were as described below.
A rating of 5: 0 to less than 0.2 g of a filter cake
A rating of 4: 0.2 to less than 0.4 g of a filter cake
A rating of 3: 0.4 to less than 0.6 g of a filter cake
A rating of 2: 0.6 to less than 0.8 g of a filter cake
A rating of 1: 0.8 g or more of a filter cake

With C. I. Acid Blue 290 [Acidic dye] as the substance, how does the Solubility rating (Acetone) read?
Its Solubility rating is 1 (A rating of 1: 0.8 g or more of a filter cake).

And the Solubility rating (Acrylonitrile)?
Its Solubility rating is 3 (A rating of 3: 0.4 to less than 0.6 g of a filter cake).

What about the Solubility rating (Chloroform) of the same substance?
Its Solubility rating is 4 (A rating of 4: 0.2 to less than 0.4 g of a filter cake).

What about the Solubility rating (Ethanol) of the same substance?
The Solubility rating was 3 (A rating of 3: 0.4 to less than 0.6 g of a filter cake).

What about the Solubility rating (Hexane) of the same substance?
Its Solubility rating is 2 (A rating of 2: 0.6 to less than 0.8 g of a filter cake).

What about the Solubility rating (Methanol) of the same substance?
The Solubility rating was 5 (A rating of 5: 0 to less than 0.2 g of a filter cake).

What about the Solubility rating (Tetrahydrofuran) of the same substance?
The Solubility rating was 4 (A rating of 4: 0.2 to less than 0.4 g of a filter cake).

And the Solubility rating (Water)?
The Solubility rating was 1 (A rating of 1: 0.8 g or more of a filter cake).
